Assay results taken from patent US20130004579A1, “Use of Plant Lectins to Target Leukocytes” (priority 2011, published 2013).

B1: OVA alone: endotoxin-free ovalbumin antigen, 50 μg/mouse, without particles (protein, UniProt P01012 2-386, looked up)
Ovalbumin: GSIGAASMEFCFDVFKELKVHHANENIFYCPIAIMSALAMVYLGAKDSTRTQINKVVRFDKLPGFGDSIEAQCGTSVNVHSSLRDILNQITKPNDVYSFSLASRLYAEERYPILPEYLQCVKELYRGGLEPINFQTAADQARELINSWVESQTNGIIRNVLQPSSVDSQTAMVLVNAIVFKGLWEKAFKDEDTQAMPFRVTEQESKPVQMMYQIGLFRVASMASEKMKILELPFASGTMSMLVLLPDEVSGLEQLESIINFEKLTEWTSSNVMEERKIKVYLPRMKMEEKYNLTSVLMAMGITDVFSSSANLSGISSAESLKISQAVHAAHAEINEAGREVVGSAEAGVDAASVSEEFRADHPFLFCIKHIATNAVLFFGRCVSP
modifications: endotoxin-free
notes: endotoxin-free ovalbumin antigen, 50 μg/mouse, without particles

Legend:
[1] = tested on: IL-1β production by BMDCs from NLRP3−/− mice; test: IL-1β ELISA on supernatants of NLRP3−/− BMDCs; type: cell-based, mouse; settings: SC-PS 31.25 μg/ml to 1 mg/ml, lectin 1.56 to 50 μg/ml
Description: (§1) BMDCs were isolated and cultured as described in Example 2 at a density of 6.25×10^5 cells/ml in 96 well U-bottomed microplates. Cells were stimulated with a Toll-like receptor (TLR) ligand (LPS or Pam2CSK4) for 6 hours. Cells were then incubated with either medium, alum/SC-PS particles, alum/SC-PS particles conjugated with UEA-1, alum/SC-PS particles conjugated with UEA-1 mimetic or with UEA-1 alone for 24 hours. After incubation, supernatants from BMDCs were collected and cytokine concentrations measured by ELISA. Antibody pairs specific for each cytokine were used for immunoassaying. The following cytokines were measured by immunoassay: IL-1α, IL-1β.
(§2) Capture antibodies were obtained from BD Pharmingen (San Diego, Calif.), BioLegend (San Diego, Calif.) and R&D Systems, Inc. (Minneapolis, Minn.) and prepared according to the manufacturer's specifications (see Table 2) and a volume of 40 μl/well added to high-binding 96 well ELISA plates. Plates were then incubated for 2 hours at 37° C. or overnight at 4° C. After incubation, plates were washed in PBS-T (×3) and tapped dry. Plates were then blocked with the appropriate blocking solution (see Table 2) and incubated for 2 hours at 37° C. After incubation plates were washed in PBS-T (×3) and tapped dry. […] Plates were then stopped by the addition of 20 μl/well of 1M H2SO4 and read. […]

[2] = tested on: IL-1α production by bone marrow-derived dendritic cells (BMDCs); test: IL-1α ELISA on supernatants of BMDCs incubated with particles; type: cell-based, mouse; settings: C57BL/6 BMDCs; LPS 1 ng/ml; serial dilutions SC-PS 31.25 μg/ml to 1 mg/ml with lectin 1.56 to 50 μg/ml; vs unconjugated SC-PS
Description: as §1
(§3) Capture antibodies were obtained from BD Pharmingen (San Diego, Calif.), BioLegend (San Diego, Calif.) and R&D Systems, Inc. (Minneapolis, Minn.) and prepared according to the manufacturer's specifications (see Table 2) and a volume of 40 μl/well added to high-binding 96 well ELISA plates. Plates were then incubated for 2 hours at 37° C. or overnight at 4° C. After incubation, plates were washed in PBS-T (×3) and tapped dry. Plates were then blocked with the appropriate blocking solution (see Table 2) and incubated for 2 hours at 37° C. After incubation plates were washed in PBS-T (×3) and tapped dry. Supernatants were transferred from cell culture plates to fresh 96 well plates. All supernatants were stored at −20° C. when not in use. Cell supernatants were applied to plates at the indicated dilutions (see Table 2). A blank triplicate was left on each plate containing the diluent as a blank. Standards were prepared at the starting concentration in the recommended diluent as specified by the manufacturer and transferred to a 96 well plate and serial dilutions (1:2) performed (see Table 2). All standards and samples were applied to plates at 40 μl/well total volume for incubation overnight at 4° C. After incubation plates were washed with PBS-T (×5) and tapped dry. […] Plates were then stopped by the addition of 20 μl/well of 1M H2SO4 and read. […]

[3] = tested on: IL-1β production by bone marrow-derived dendritic cells (BMDCs); test: IL-1β ELISA on supernatants of BMDCs incubated with particles; type: cell-based, mouse; settings: C57BL/6 BMDCs; LPS 1 ng/ml; serial dilutions SC-PS 31.25 μg/ml to 1 mg/ml with lectin 1.56 to 50 μg/ml; vs unconjugated SC-PS
Description: as §1, §3

[4] = tested on: IL-1α production by BMDCs from NLRP3−/− mice; test: IL-1α ELISA on supernatants of NLRP3−/− BMDCs; type: cell-based, mouse; settings: SC-PS 31.25 μg/ml to 1 mg/ml, lectin 1.56 to 50 μg/ml, vs untargeted particles
Description: as §1, §2

[5] = tested on: BALB/c mice; test: OVA-specific cytokine responses of peritoneal cells after i.p. immunization; type: in vivo, mouse; settings: i.p. days 0 and 35, day 42; OVA 100 μg/ml restimulation; comparison with OVA-loaded PS particles
Description: Five groups of 6-8 week old female BALB/c mice (five mice per group) were i.p, immunized on day 0 with a total volume of 200 μl of vaccine. All ovalbumin (OVA) used was endotoxin-free. The groups were:
On day 34, blood was collected from the tail vein of each mouse and used to measure serum antibody titres. The following day, mice were i.p. immunized with an identical series of booster vaccinations as on day 0. Mice were sacrificed on day 42 by cervical dislocation, and cells were harvested.
Spleens were removed from the mice, and single cell suspensions prepared as described above. Peritoneal lavages were also performed. Cells were plated onto 96 well U-bottomed plates at cell densities of 2×10^6 cells/ml for splenocytes and 1×10^6 cells/ml for peritoneal lavage cells in 200 μl of complete RPMI 1640 medium per well.
Cells were stimulated in vitro with PBS, endotoxin-free OVA (50 μg/ml, 100 μg/ml, 500 μg/ml), phorbol myristate acetate (PMA, 25 ng/ml) combined with anti-CD3 (1 μg/ml) or anti-CD3 alone (0.5 μg/ml). Cells were incubated with antigen for 3 days. Supernatants were then removed and IL-5, IL-10, IL-17 and IFN-γ cytokine concentrations were determined by ELISA. […]

Molecule | IL-1β production in the absence of NLRP3 [1] | TLR-4 agonist-primed IL-1α production [2] | TLR-4 agonist-primed IL-1β production [3] | IL-1α production in the absence of NLRP3 [4] | antigen-specific IL-5 by peritoneal cells [5] | antigen-specific IL-17 by peritoneal cells [5]
PHA-E: SC-PS particles conjugated with biotinylated Phaseolus vulgaris erthyroagglutinin | not IL-β production | greatly increased IL-1α production and remained effective across four of the five serial dilutions | greatly increased IL-1β production and remained effective across four serial dilutions | enhances IL-1α production | – | –
PHA-L: SC-PS particles conjugated with biotinylated Phaseolus vulgaris leukoagglutinin | not IL-1β production | greatly increased IL-1α production and remained effective across four of the five serial dilutions | greatly increased IL-1β production and remained effective across four serial dilutions | enhances IL-1α production | – | –
B1 | – | – | – | – | stronger | stronger
